Test results: patent US6350907B1, “Matrix metalloprotease inhibitors” (Pfizer Inc, priority 1998, dated 2002)

Tests used:
[1] = target: T1, MMP-14 (Homo sapiens, UniProt P50281); assay: Inhibition of MMP-14, cleavage of fluorogenic peptide; type: biochemical; details: x = 14; read-out: MMP-14 inhibitor IC50
T1 construct: Catalytic domain MMP-14 was purchased from Prof Tschesche; purchased Prof Tschesche, Department of Biochemistry, Faculty of Chemistry, University of Bielefeld, Germany
Protocol: (§1) The ability of compounds to inhibit the cleavage of fluorogenic peptides by MMPs 1, 2, 3, 9 12, 13 and 14 is described below.
(§2) The assays for MMPs 2, 3, 9, and 14 are based upon the original protocol described by Knight et al. (Fed.Euro.Biochem.Soc., 296 (3), 263-266; 1992) with the slight modifications given below.
(§3) Test compounds were dissolved in dimethyl sulphoxide and diluted with test buffer solution (as above) so that no more than 1% dimethyl sulphoxide was present. Test compound and enzyme were added to each well of a 96 well plate and allowed to equilibrate for 15 minutes at 37° C. in an orbital shaker prior to the addition of substrate. Plates were then incubated for 1 hour at 37° C. prior to determination of fluorescence using a fluorimeter (Fluostar; BMG LabTechnologies, Aylesbury, UK) at an excitation wavelength of 328 nm and emission wavelength of 393 nm.
Catalytic domain MMP-14 was purchased from Prof Tschesche, Department of Biochemistry, Faculty of Chemistry, University of Bielefeld, Germany. A 10 μM enzyme stock solution was activated for 20 minutes at 25° C. following the addition of 5 μg/ml of trypsin (Sigma, Dorset, UK). […]

[2] = target: T2, MMP-9 (Homo sapiens, UniProt P14780); assay: Inhibition of MMP-9, cleavage of fluorogenic peptide; type: biochemical; details: x = 9; read-out: MMP-9 inhibitor IC50
T2 construct: Catalytic domain MMP-2, MMP-3 and MMP-9 were prepared at Pfizer Central Research; made in house
Protocol: as §1, §2
(§4) Catalytic domain MMP-2, MMP-3 and MMP-9 were prepared at Pfizer Central Research. […] MMP-3 was activated by the addition of 2 mM APMA, followed by incubation for 3 hours at 37° C. The enzymes were then diluted in Tris-HCl assay buffer (100 mM Tris, 100 mM NaCl, 10 mM CaCl2 and 0.16% Brij 35, pH 7.5), to a concentration of 10 nM. The final concentration of enzyme used in the assays was 1 nM.
(§5) The fluorogenic substrate used in this screen was Mca-Arg-Pro-Lys-Pro-Tyr-Ala-Nva-Trp-Met-Lys(Dnp)-NH2 (Bachem Ltd, Essex, UK) as originally described by Nagase et al (J.Biol.Chem., 269(33), 20952-20957, 1994). […] The final substrate concentration used in the assay was 5 μM. […]
as §3, with “Test compound and enzyme were added to each well of a 96 well plate and allowed to equilibrate for 15 minutes at 37° C. in an orbital shaker prior to the addition of substrate.” left out

[3] = target: T3, MMP-13 (Homo sapiens, UniProt P45452); assay: Inhibition of MMP-13, cleavage of fluorogenic peptide; type: biochemical; details: x = 13; read-out: MMP-13 inhibitor IC50
T3 construct: purchased PanVera Corporation (Madison, Wis.)
Protocol: as §1
Human recombinant MMP-13 was prepared by PanVera Corporation (Madison, Wis.) and characterized at Pfizer (Groton, Conn.). A 1.9 mg/ml stock was activated with 2 mM APMA for 2 hours at 37° C. MMP-13 was then diluted in assay buffer (50 mM Tris, 200 mM NaCl, 5 mM CaCl2, 20 μM ZnCl2 and 0.02% Brij 35) at pH 7.5 to a concentration of 5.3 nM. The final concentration of enzyme used in the assay was 1.3 nM.
The fluorogenic substrate used in this screen was Dnp-Pro-Cha-Gly-Cys(Me)-His-Ala-Lys(NMA)-NH2. The final substrate concentration used in the assay was 10 μM.
(§6) (iii) Determination of Enzyme Inhibition
Test compounds were dissolved in dimethyl sulphoxide and diluted with assay buffer so that no more than 1% dimethyl sulphoxide was present. Test compound and enzyme were added to each well of a 96 well plate. The addition of substrate to each well initiated the reaction. Fluorescence intensity was determined on a 96 well plate fluorometer (Cytofluor II; PerSeptive Biosystems, Inc, Framingham, Mass.) at an excitation wavelength of 360 nm and emission wavelength of 460 nm.

[4] = tested on: endothelial cell invasion of basement membrane; details: thereby inhibiting angiogenesis; cited from earlier work
[5] = target: T4, MMP-2 (Homo sapiens, UniProt P08253); assay: Inhibition of MMP-2, cleavage of fluorogenic peptide; type: biochemical; details: x = 2; read-out: MMP-2 inhibitor IC50
T4 construct: Catalytic domain MMP-2, MMP-3 and MMP-9 were prepared at Pfizer Central Research; made in house
Protocol: as §1, §2, §4, §5
as §3, with “Test compound and enzyme were added to each well of a 96 well plate and allowed to equilibrate for 15 minutes at 37° C. in an orbital shaker prior to the addition of substrate.” left out

[6] = target: T5, MMP-12 (Homo sapiens, UniProt P39900); assay: Inhibition of MMP-12 (Human Macrophage Elastase), cleavage of fluorogenic peptide; type: biochemical; details: x = 12; read-out: MMP-12 inhibitor IC50
T5 construct: Catalytic domain MMP-12 (200 μg/ml) was used
Protocol: as §1
Inhibition of MMP-12 (Human Macrophage Elastase)
Catalytic domain MMP-12 (200 μg/ml) was used. MMP-12 was diluted in Tris-HCl assay buffer (50 mM Tris, 200 mM NaCl, 5 mM CaCl2, 20 μM ZnSO4, 0.02% Brij 35) pH 7.4 to 240 ng/ml. The final concentration of enzyme used in the assay was 60 ng/ml.
The fluorogenic substrate used in this assay was DNP-Pro-Cha-Gly-Cys(Me)-His-Ala-Lys(NMA)-NH2. The final substrate concentration used in the assay was 10 μM.
as §6
Test compounds were dissolved in dimethyl sulphoxide and diluted with assay buffer so that no more than 1% dimethyl sulphoxide was present. Test compound and enzyme were added to each well of a 96 well plate and allowed to equilibrate for 15 minutes at room temperature in an orbital shaker prior to the addition of substrate. Plates were then incubated for 2 hours at room temperature prior to the determination of fluorescence (substrate cleavage) using a fluorimeter at an excitation wavelength of 360 nm and emission wavelength of 460 nm.

[7] = target: T6, MMP-3 (Homo sapiens, UniProt P08254); assay: Inhibition of MMP-3, cleavage of fluorogenic peptide; type: biochemical
T6 construct: Catalytic domain MMP-2, MMP-3 and MMP-9 were prepared at Pfizer Central Research; made in house
Protocol: as §1, §4
The final substrate concentration used in the assay was 5 μM.
as §6
Test compounds were dissolved in dimethyl sulphoxide and diluted with test buffer solution (as above) so that no more than 1% dimethyl sulphoxide was present. Test compound and enzyme were added to each well of a 96 well plate and allowed to equilibrate for 15 minutes at 37° C. in an orbital shaker prior to the addition of substrate.

[8] = tested on: keratinocyte migration; details: in vitro; cited from earlier work

T6 sequence (P08254 100-272 limits assumed): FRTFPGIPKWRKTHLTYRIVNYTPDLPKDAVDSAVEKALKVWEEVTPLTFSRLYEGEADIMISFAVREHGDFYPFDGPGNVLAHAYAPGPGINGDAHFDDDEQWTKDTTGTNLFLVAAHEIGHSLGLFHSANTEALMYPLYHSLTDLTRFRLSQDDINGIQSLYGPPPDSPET
T2 sequence (P14780 107-444 limits assumed): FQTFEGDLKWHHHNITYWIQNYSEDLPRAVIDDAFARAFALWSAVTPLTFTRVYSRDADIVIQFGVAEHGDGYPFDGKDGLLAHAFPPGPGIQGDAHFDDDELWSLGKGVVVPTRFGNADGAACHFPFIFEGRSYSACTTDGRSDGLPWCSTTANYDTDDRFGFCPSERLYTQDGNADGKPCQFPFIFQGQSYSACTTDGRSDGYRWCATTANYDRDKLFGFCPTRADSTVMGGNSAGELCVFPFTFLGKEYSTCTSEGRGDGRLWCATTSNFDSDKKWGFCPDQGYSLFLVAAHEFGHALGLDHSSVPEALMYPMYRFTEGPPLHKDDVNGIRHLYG
T5 sequence (P39900 106-263 limits assumed): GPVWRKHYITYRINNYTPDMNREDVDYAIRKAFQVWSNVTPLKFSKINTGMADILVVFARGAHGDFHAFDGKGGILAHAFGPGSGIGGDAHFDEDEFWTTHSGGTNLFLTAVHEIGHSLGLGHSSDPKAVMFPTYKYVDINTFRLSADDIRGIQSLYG
T4 sequence (P08253 110-446 limits assumed): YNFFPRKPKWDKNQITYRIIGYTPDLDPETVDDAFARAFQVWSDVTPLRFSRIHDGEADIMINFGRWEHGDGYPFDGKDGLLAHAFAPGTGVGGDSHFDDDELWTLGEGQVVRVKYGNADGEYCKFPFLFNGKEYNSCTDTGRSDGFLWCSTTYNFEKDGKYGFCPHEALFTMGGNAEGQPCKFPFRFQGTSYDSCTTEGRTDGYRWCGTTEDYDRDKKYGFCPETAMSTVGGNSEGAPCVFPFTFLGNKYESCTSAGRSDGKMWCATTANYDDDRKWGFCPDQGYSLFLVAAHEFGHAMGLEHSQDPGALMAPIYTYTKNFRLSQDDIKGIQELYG

Question: For C[C@@H](NC(=O)[C@@H](NC(=O)[C@H](CCCc1ccc(-c2ccccc2)c(Cl)c1)CC(=O)NO)C(C)(C)C)c1ccccc1 [Example 2, (2R)-2-{3-[3-Chloro-(4-phenyl)phenyl]propyl}-N1-[(1S)-2,2-dimethyl-1-({[(1R)-1-phenylethyl]amino}carbonyl)propyl]-(N4-hydroxy)butanediamide.], which IC50 [1] is on record?
Answer: 5.65 µM

Question: What about the IC50 [2] of the same molecule?
Answer: 1.91 µM

Question: And the IC50 [3]?
Answer: 0.13 µM

Question: Which “Inhibition of endothelial cell invasion of basement membrane” value [4] does the source give for CNC(=O)[C@H](Cc1ccccc1)NC(=O)[C@H](CC(C)C)[C@H](CSc1cccs1)C(=O)NO [BB94, (2S,3R)-5-methyl-3-{[(1S)-1-(methylcarbamoyl)-2-phenylethyl]carbamoyl}-2-[(2-thienylthio)methyl]hexanohydroxamic acid] here?
Answer: inhibits endothelial cell invasion of basement membrane

Question: What does the source list for Cc1cc(CCC[C@H](CC(=O)O)C(=O)N[C@H](C(=O)N[C@H](C)c2ccccc2)C(C)(C)C)ccc1-c1ccccc1 [Example 1, (3R)-3-({[(1S)-2,2-dimethyl-1-({[(1R)-1-phenylethyl]amino}carbonyl)propyl]amino}carbonyl)-6-[(3-methyl-4-phenyl)phenyl]hexanoic acid]?
Answer: IC50 [5]: 10.8 µM; IC50 [6]: 0.085 µM; 3/2sel: Selectivity for MMP-3 over MMP-2 [7]: 107; IC50 [7]: 0.101 µM

Question: With CNC(=O)[C@H](Cc1ccc(OC)cc1)NC(=O)[C@@H](CC(=O)NO)CC(C)C [SC44463] as the molecule, how does the “Inhibition of keratinocyte migration on a collagen type I matrix” value [8] read?
Answer: completely inhibited
